According to patent US20040120954A1, “Regulation of mt1-mmp activity” (priority 2000, published 2004):

Columns and labels:
HT1080 cells = test: Matrigel invasion assay (modified Boiden-chamber method); format: cell-based, human; conditions: HT1080 cells transfected with the expression plasmid (with GFP), 14 hrs (FIG. 15)
Description: Matrigel Invasion Chambers were prepared according to the manufacturer's instructions (Becton Dickinson Labware, MA, USA) by coating, with […] of Matrigel, the 8 μm-pore sized membrane of the culture inserts for 24-well plates (Falcon). A 0.5 ml aliquot of transfected HT1080 cell suspension at 0.1×10^5/ml was seeded on the upper chamber and incubated at 37° C. in a humidified chamber. Hepatocyte growth factor (Toyobo; 10 ng/ml) was added to the lower chamber as a chemo-attractant. After 14 hrs of incubation, cells remaining on the upper surface of the membrane were removed, and cells on the lower surface were fixed with 3% para-formaldehyde in PBS. Green fluorescent protein (GFP)-positive cells that had invaded to the lower, surface were counted using fluorescence microscopy (×40).
Cells were transiently transfected with a vector for MT1PEX-F, together with an expression vector for green fluorescent protein (GFP), and GFP-positive invading cells were counted under fluorescence microscopy. HT1080 cells were co-transfected with expression vectors for MT1PEX-F and GFP, or with an expression vector for GFP alone. The cells were assayed for Matrigel invasion as described below. The modified Boiden-chamber method was carried out. […]
TIMP-2 at 0.5 μg/ml was added to the upper and lower chambers. GFP-positive cells on the surface of the lower chamber were counted using fluorescence microscopy. […]

proMMP-2 = biological target: T1, proMMP-2 (Homo sapiens, UniProt P08253); test: ProMMP-2 binding assay on transfected COS1 cells; format: cell-based; conditions: COS1 cells co-transfected with MT1-MMP (FIG. 29)
T1 construct: made in house; host or cells: HighFive insect cells infected with recombinant baculovirus; purified from culture supernatant
T1 sequence (P08253 30-660 limits assumed): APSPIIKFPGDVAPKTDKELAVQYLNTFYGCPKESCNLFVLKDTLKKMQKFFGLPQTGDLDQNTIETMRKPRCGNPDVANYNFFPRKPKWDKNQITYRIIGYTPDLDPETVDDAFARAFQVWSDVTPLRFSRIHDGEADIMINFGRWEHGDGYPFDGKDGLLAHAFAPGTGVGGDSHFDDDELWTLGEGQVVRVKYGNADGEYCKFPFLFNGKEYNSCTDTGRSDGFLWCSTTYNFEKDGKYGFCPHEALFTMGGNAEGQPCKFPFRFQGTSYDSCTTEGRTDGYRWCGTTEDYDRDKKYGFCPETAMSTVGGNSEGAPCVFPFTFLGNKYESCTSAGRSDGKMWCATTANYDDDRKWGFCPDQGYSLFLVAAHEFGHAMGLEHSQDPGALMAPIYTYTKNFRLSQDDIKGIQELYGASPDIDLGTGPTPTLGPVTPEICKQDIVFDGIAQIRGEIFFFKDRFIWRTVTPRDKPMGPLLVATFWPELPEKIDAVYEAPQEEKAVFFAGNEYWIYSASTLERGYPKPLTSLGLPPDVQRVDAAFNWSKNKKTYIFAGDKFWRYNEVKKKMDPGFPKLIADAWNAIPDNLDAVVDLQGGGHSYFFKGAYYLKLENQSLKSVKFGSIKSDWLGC
Description: Transfected COS1 cells were cultured in a 24-well plate (0.2×10^4/well). Forty-eight hours after transfection, the cells were washed three times with serum-free DMEM, and incubated with purified proMMP-2 (2 μg/ml) in the serum-free DMEM at 25° C. for 1 hr. The cells were then washed three times with serum-free DMEM containing 5% dimethyl sulfoxide (DMSO) to remove free proMMP-2, and lysed in 50 μl of a non-reducing SDS-loading buffer. MMP-2 bound to the cells was analyzed by gelatin zymography.

MT1PEX-F: Catalytic domain-deleted FLAG-tagged MT1-MMP (Δ Tyr112-Pro312), expressed by transfection
suppression of Matrigel invasion (HT1080 cells): 70% | effect on proMMP-2 binding to the cell surface (proMMP-2): not affected
